Ends that are not written are not given here.
Legend:
[1] = system: HVT (turkey herpes virus); assay: HVT multiplication suppression test in CEF cells, titer by plaque assay; format: cell-based, turkey herpes virus (FC-126 strain); conditions: for antiviral activity (viral multiplication suppression effect): result in words, peptide 10, 50 and 100 μM; for Ratio (relative ratio of virus titer, no peptide added = 1) / Titer: CEF cells, six days
Experimental: The antiviral activity (viral multiplication suppression effect) was examined for each sample antiviral peptide and each comparative sample peptide. In the present example, HVT (turkey herpes virus) was used as the target virus, and the titer was measured based on the plaque assay method.
That is to say, chicken embryo fibroblast (CEF) cells prepared from SPF (specific pathogen-free) embryonated hen's egg (purchased from Nisseiken Co., LTD) were monolayer-cultured at 37° C. using Leibowitz-McCoy 5A (1:1) mixed culture medium (LM medium). The culture was peeled from the culture dish by trypsin digestion and transferred to a 50 mL centrifugation tube. After centrifugal separation, the supernatant was discarded and the culture was suspended with LM medium.
HVT (FC-126 strain used as vaccine), which virus titer was measured beforehand, was diluted with this cell suspension to as to have 100 plaque forming units (PFU) or 400 PFU per 2 mL. This dilute solution was dispensed in each well of a 6-well plate, 2 mL in each. Then, the test peptides (Samples 1 to 4, Comparative Samples 1 to 4) were diluted with PBS to be at 2.1 mM, 1050 μM and 210 μM, and added to each well, 0.1 mL in each. The final concentration of each well after addition was respectively 100 μM, 50 μM and 10 μM. A well to which 0.1 mL of PBS not containing peptide was added was prepared as a reference.
Thereafter, the above 6-well plate was placed in a CO2 incubator (5% CO2), cultured at 37° C. for six days, and the number and size of HVT plaques that appeared were observed. Here, comparing with wells with no peptide added, when a drop in the number of plaques or a reduction in the size of plaques was not observed even when a peptide was added, the viral multiplication suppression effect of this peptide was determined to be none. On the other hand, a test peptide for which a well with smaller plaque number or plaque size was present, the titer of each well was measured, and the viral multiplication suppression effect (antiviral activity) was quantified by comparing with the quantity of virus with no peptide added.
For the method for measuring the HVT virus titer, cells in each well were recovered by trypsin digestion, serially diluted, mixed again with CEF cells, dispensed in a 6-well plate and cultured at 37° C., and the number of plaques appeared after six days were counted. The relative ratio of virus titer at each peptide concentration was determined with the virus titer (PFU/mL) of the well with no peptide added being 1. That is to say, the viral multiplication suppression effect of each test peptide can be compared using the value of this relative ratio (Ratio).

[2] = system: A/New Calcdonia/20/99 (H1N1) influenza virus; assay: Influenza virus multiplication inhibition assay (plaque assay) in MDCK cells; format: cell-based; conditions: 48 hours; for Infectivity Titer, Trial 1: control 1.1 × 10^9; for Infectivity Titer, Trial 2: control 2.1 × 10^9

Substance	antiviral activity (viral multiplication suppression effect) [1]	Ratio (relative ratio of virus titer, no peptide added = 1) ([1]; peptide 100 μM)	Infectivity Titer, Trial 1 ([2]; peptide 100 μM)	further results
EFFDAPE-COOH (EFFDAPE-OH; listed as Homo sapiens) [Comparative Sample 3, reference compound]	no viral multiplication suppression effect			
FKIKITTAPKRYCVRPN-NH2 [Comparative Sample 4, reference compound]	no viral multiplication suppression effect			
RKKKRKV FKIKTTAPKRYCVRPN-CONH2 (RKKKRKVFKIKTTAPKRYCVRPN-NH2) [Sample 3]	excellent antiviral activity	0.30		
RKKKRKV FKVKTTAPKRYCVRPN-CONH2 (RKKKRKVFKVKTTAPKRYCVRPN-NH2) [Sample 6]			3.3 × 10^8 PFU/mL	Infectivity Titer, Trial 1 ([2]; peptide 200 μM): 1.0 × 10^8 PFU/mL
RKKKRKV FKVKTTAPRRYCVRPN-CONH2 (RKKKRKVFKVKTTAPRRYCVRPN-NH2) [Sample 5]			3.5 × 10^8 PFU/mL	Infectivity Titer, Trial 1 ([2]; peptide 50 μM): 1.0 × 10^9 PFU/mL; Infectivity Titer, Trial 2 ([2]; peptide 50 μM): 1.2 × 10^9 PFU/mL; Infectivity Titer, Trial 2 ([2]; peptide 100 μM): 6.9 × 10^8 PFU/mL
RKKKRKV-COOH (RKKKRKV-OH) [Comparative Sample 2, reference compound]	no viral multiplication suppression effect			
RQARRNRRRRWR EFFDAPE-CONH2 (RQARRNRRRRWREFFDAPE-NH2) [Sample 1]		0.90		
RQARRNRRRRWR EFFDARE-CONH2 (RQARRNRRRRWREFFDARE-NH2) [Sample 2]		0.80		
RQARRNRRRRWR FKVKTTSPKKYFVRPN-CONH2 (RQARRNRRRRWRFKVKTTSPKKYFVRPN-NH2) [Sample 4]	excellent antiviral activity	0.16	5.8 × 10^8 PFU/mL	Ratio (relative ratio of virus titer, no peptide added = 1) ([1]; peptide 10 μM): 1.0; Titer ([1]; peptide 10 μM): (7.6 × 10^4) PFU/mL; Ratio (relative ratio of virus titer, no peptide added = 1) ([1]; peptide 50 μM): 0.46; Titer ([1]; peptide 50 μM): (3.5 × 10^4) PFU/mL; Titer ([1]; peptide 100 μM): (1.2 × 10^4) PFU/mL; Infectivity Titer, Trial 1 ([2]; peptide 200 μM): 2.8 × 10^8 PFU/mL
RQARRNRRRRWR-COOH (RQARRNRRRRWR-OH) [Comparative Sample 1, reference compound]	no viral multiplication suppression effect			
